Assay results published in patent US20240024262A1, “USE OF VALERIC ACID IN PREPARATION OF DRUG FOR PREVENTING AND TREATING DIABETES” (Harbin Medical University, priority 2022, published 2024).

Experiments:
[1] = system: mouse primary islet β cells; assay: Insulin secretion ability test; format: cell-based; settings: for secretion levels of the insulin stimulated under a high glucose environment: high sugar (20 mmol/L), after PA intervention
Source text: (§1) Through an insulin secretion ability test, the levels of the insulin produced in each group under concentrations of no sugar, low sugar (2.8 mmol/L) and high sugar (20 mmol/L) are compared.

Beta-TC-6 cell line [2] = assay: Insulin secretion ability test; format: cell-based, mouse; settings: for secretion levels of the insulin stimulated under a high glucose environment: high sugar (20 mmol/L), after PA intervention
Source text: as §1

Beta-TC-6 cells [3] = assay: EdU-488 cell proliferation test; format: cell-based, mouse; settings: PA alone, or SV 1 mmol/L after PA compared with PA group
Source text: (§2) During the cell testing phase of this example, a cell line of mouse insulinoma islet β cells (Beta-TC-6) and mouse primary islet β cells were purchased from Wuhan Prosser Life Technology Co., Ltd for carrying out relevant experimental researches.
(§3) A cell Counting Kit 8 (CCK-8) is a convenient and reliable method to detect the cell activity. In this example, a BeyoClick™ EdU-488 kit is further used to detect the proliferation level of the cells. EdU (5-ethynyl-2′-deoxyuridine) is a thymidine analog that may replace T to infiltrate replicated DNA molecules in the process of cell proliferation. The replication activity of DNA was detected by specific reaction of EdU and an Apollo® Fluor 488 fluorescent dye, an EdU label was correctly detected, and then proliferation of cells was reflected. In this example, expression of Ki-67 in the cells was detected by immunofluorescence (immunocytochemistry), and apoptosis was analyzed by referring to a one-step TUNEL cell apoptosis detection kit (red fluorescence). Meanwhile, this example used a flow cytometry technology to complete detection of a cell cycle and apoptosis.
(§4) The following drugs are taken as comparative examples: • 1. […]

[4] = system: mouse primary islet β cells; assay: TUNEL cell apoptosis detection test; format: cell-based; settings: PA intervention, then SV intervention
Source text: as §2, §3

Beta-TC-6 cell line [5] = assay: TUNEL cell apoptosis detection test; format: cell-based, mouse; settings: PA intervention, then SV intervention
Source text: as §2, §3

[6] = system: mouse primary islet β cells; assay: EdU-488 cell proliferation test; format: cell-based; settings: PA alone, or SV 1 mmol/L after PA compared with PA group
Source text: as §2, §3, §4

Beta-TC-6 cells [7] = assay: Flow cytometry apoptosis analysis; format: cell-based, mouse; settings: Beta-TC-6, flow cytometry; PA intervention, then SV intervention
Source text: as §3
Sodium valerate SV can weaken PA induced apoptosis to a certain extent (FIG. 17).

[8] = system: Leptin receptor gene deficient db/db mice; assay: Type 2 diabetes model db/db mice: food intake, body weight, blood glucose-related indexes; format: in vivo; settings: comparison among groups / vs PBS control group
Method: The following drugs are taken as comparative examples: • 1. Comparative example where an existing drug serves as a positive control • (1) High-fat fed C57BL6/J mice • Sodium butyrate gavage intervention group: 75.0 mg/kg • (2) Type 2 diabetes model db/db mice • Sodium butyrate gavage intervention group: 75.0 mg/kg • Harmine gavage intervention group: 10.0 mg/kg • Metformin gavage intervention group: 100.0 mg/kg • (3) Cell line of mouse insulinoma islet β cells (Beta-TC-6) • Sodium butyrate intervention group: 1.0 mmol/L • Harmine intervention group: 10.0 μmmol/L • (4) Mouse islet β primary cell • Sodium butyrate intervention group: 1.0 mmol/L • Harmine intervention group: 10.0 μmmol/L • 2. A control test is taken as a comparative example • (1) High-fat fed C57BL6/J mice • Ordinary feed feeding group, and high-fat feed PBS gavage group • (2) Type 2 diabetes model db/db mice • Control feeding group and PBS gavage group • (3) Cell line of mouse insulinoma islet β cells (Beta-TC-6) • Blank control group, and palmitic acid (PA) intervention negative control group • (4) Mouse islet β primary cell • Blank control group, and PA intervention negative control group • Results are as follows:
(II) In the animal test, the therapeutic effect of the valeric acid on diabetes is observed by using Leptin receptor gene deficient db/db mice (purchased from Nanjing Junke Biotechnology Co., Ltd.) as test subjects.

| Compound | secretion levels of the insulin stimulated under a high glucose environment [1] | secretion levels of the insulin stimulated under a high glucose environment (Beta-TC-6 cell line [2]) | secretion ability of the insulin ([1]; PA intervention) | proportion of EdU (+) cells (Beta-TC-6 cells [3]) | secretion ability of the insulin (Beta-TC-6 cell line [2]; PA intervention) | proportion of apoptotic cells (TUNEL) [4] | proportion of apoptotic cells (TUNEL) (Beta-TC-6 cell line [5]) | proportion of EdU (+) cells [6] | proportion of apoptotic cells, Q2 quadrant (late apoptosis) and Q3 quadrant (early apoptosis) (Beta-TC-6 cells [7]) | insulin secretion [8] | secretion levels of the insulin stimulated under a high glucose environment ([1]; listed as SV) | secretion levels of the insulin stimulated under a high glucose environment (Beta-TC-6 cell line [2]; listed as SV) |
| --- | --- | --- | --- | --- | --- | --- | --- | --- | --- | --- | --- | --- |
| COc1ccc2c(c1)[nH]c1c(C)nccc12 [Harmine] | significantly increased | significantly increased | – | – | – | – | – | – | – | – | – | – |
| CCCCCCCCCCCCCCCC(=O)O [PA, palmitic acid, reference compound] | – | – | decreased significantly | decreased significantly | decreased significantly | increased significantly | increased significantly | decreased significantly | increased significantly | – | – | – |
| CCCC(=O)[O-].[Na+] [Sb, sodium butyrate] | significantly increased | significantly increased | – | – | – | – | – | – | – | – | – | – |
| CN(C)C(=N)N=C(N)N [metformin, reference compound] | – | – | – | – | – | – | – | – | – | basically no difference | – | – |
| CCCCC(=O)[O-].[Na+] [sodium valerate] | more significant | more significant | – | increased significantly | – | slightly decreased | slightly decreased | increased significantly | decreased significantly | – | significantly increased | significantly increased |
